Measurements from patent US4968792A, “Psychotropic benzisothiazole derivatives” (American Home Products Corporation, priority 1989, dated 1990).

Key:
[1] = target: T1, serotonin 5-HT1A receptor (Rattus norvegicus, UniProt P19327); settings: standard for anxiolytic activity; cited from earlier work
T1 construct: following the procedure of Hall et al., J. Neurochem; 44, 1685 (1985); from tissue
T1 sequence (P19327 1-422): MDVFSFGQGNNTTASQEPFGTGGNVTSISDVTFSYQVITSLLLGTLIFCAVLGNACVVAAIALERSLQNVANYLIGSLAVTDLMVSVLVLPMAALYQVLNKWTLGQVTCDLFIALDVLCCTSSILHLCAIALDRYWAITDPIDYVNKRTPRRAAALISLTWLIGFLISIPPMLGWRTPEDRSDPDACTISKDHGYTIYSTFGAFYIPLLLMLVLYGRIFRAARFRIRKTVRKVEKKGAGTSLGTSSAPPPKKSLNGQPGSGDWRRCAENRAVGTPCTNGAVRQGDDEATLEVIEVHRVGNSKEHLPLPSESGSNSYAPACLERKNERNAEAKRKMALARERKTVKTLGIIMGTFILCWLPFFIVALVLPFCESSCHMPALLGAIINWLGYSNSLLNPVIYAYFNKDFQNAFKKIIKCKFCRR

dopamine D-2 receptor = target: T2, dopamine D-2 receptor (Rattus norvegicus, UniProt P61169); test: dopamine D-2 receptor binding (displacement of 3H-spiroperidol, homogenized limbic brain tissue)
T2 construct: from tissue; host or cells: limbic brain tissue, homogenized
T2 sequence (P61169 whole entry): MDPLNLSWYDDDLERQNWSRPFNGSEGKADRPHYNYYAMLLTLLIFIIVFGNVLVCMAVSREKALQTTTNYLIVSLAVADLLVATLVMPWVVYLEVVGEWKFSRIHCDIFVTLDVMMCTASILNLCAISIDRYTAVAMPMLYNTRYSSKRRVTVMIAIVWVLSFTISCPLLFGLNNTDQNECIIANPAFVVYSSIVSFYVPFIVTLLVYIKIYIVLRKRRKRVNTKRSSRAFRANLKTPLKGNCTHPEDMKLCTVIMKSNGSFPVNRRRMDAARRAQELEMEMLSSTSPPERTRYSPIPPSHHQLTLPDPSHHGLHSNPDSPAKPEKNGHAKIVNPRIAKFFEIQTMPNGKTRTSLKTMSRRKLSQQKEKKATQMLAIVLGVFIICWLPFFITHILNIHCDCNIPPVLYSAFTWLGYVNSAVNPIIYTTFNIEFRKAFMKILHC
Experimental: High affinity for the dopamine D-2 receptor was established by the standard experimental test procedure of Fields, et al., Brain Res., 136, 578-584 (1977) and Yamamura et al., eds., Neurotransmitter Receptor Binding, Raven Press, N.Y. (1978) wherein homogenized limbic brain tissue is incubated with ^3 H-spiroperiodol and various concentrations of test compound, filtered and washed and shaken with Hydrofluor scintillation cocktail (National Diagnostics) and counted in a Packard 460 CD scintillation counter.

[2] = target: T1, serotonin 5-HT1A receptor; test: serotonin 5-HT1A receptor binding (displacement of [3H]8-OHDPAT)
Excerpt: High affinity for the serotonin 5-HT1A receptor was established by testing the claimed compound's ability to displace [^3 H]8-OHDPAT (dipropylaminotetralin) from the 5-HT1A serotonin receptor following the procedure of Hall et al., J. Neurochem. 44, 1685 (1985). […] The anxiolytic activity of buspirone is believed to be, at least partially, due to its 5-HT1A receptor affinity (Vander Maelen et al., Eur. J. Pharmacol., 129 (1-2) 123-130 (1986).

[3] = conditioned avoidance, shelf-jump response test; assay type: in vivo, rat (male CD); settings: Rattus norvegicus, no CI, read-out: Avoidance Block AB50, Shelf-jump
Excerpt: (§1) The antipsychotic properties of the compound of Example 5 were further established by standard pharmacologically accepted procedures involving conditioned avoidance studies in which trained male CD rats (Charles River), 400-500 g. body weight are exposed to a fifteen second warning tone (conditioned stimulus) continued for an additional fifteen seconds accompanied by electric shock. The rat can avoid the electric shock by jumping to an exposed shelf (shelf-jump response). A response during the initial warning tone is considered an avoidance response, while a response during shock delivery is considered an escape response. The shelf-jump response test procedure follows that of Herman et. al., Comm. in Psychopharm., 3, pp. 165-171 (1979). A similar test procedure (Discrete Trial) in which a lever press was substituted for a shelf-jump was also used to establish the activity of the compound of Example 5. The compound was tested over a full dose range and the Avoidance Block activities reported as "AB50 's (mg/kg): Shelf-jump: 6.43 (no CI) i.p., 58.28 (no CI) p.o.; Discrete Trial: 4.80 (2.14-17.66) i.p., 35.35 (no CI) p.o.

[4] = conditioned avoidance, Discrete Trial (lever press); assay type: in vivo, rat (male CD); settings: Rattus norvegicus, read-out: Avoidance Block AB50, Discrete Trial
Excerpt: as §1

inhibition at 1 µM (dopamine D-2 receptor) [%] | inhibition at 1 µM [2] [%] | Ki [2] [nM] | SMILES | other results
100 | 100 |  | O=C1C2C(C(=O)N1CCCCN1CCN(c3nsc4ccccc34)CC1)C1C3CC4C(C32)C41 (stereo not drawn) [Example 6, (Exo)-octahydro-2-[4-[4-(1,2-benzisothiazol-3-yl)-1-piperazinyl]butyl]-4,5,7-metheno-1H-pentaleno[1,2-c]pyrrole-1,3(1H)-dione] | 
 |  | 0.4 | O=C1C2C(C(=O)N1CCCCN1CCN(c3nsc4ccccc34)CC1)C1C3CC4C(C32)C41 (stereo not drawn) [Example 7, (Endo)-octahydro-2-[4-[4-(1,2-benzisothiazol-3-yl)-1-piperazinyl]butyl]-4,5,7-metheno-1H-pentaleno[1,2-c]pyrrole-1,3(2H)-dione] | D-2 Binding (Inhibition at 1 μM) (dopamine D-2 receptor; at 1 μM): 100%; 5-HT1A Binding (Inhibition at 1 μM) ([2]; at 1 μM): 100%
95 | 96 | 0.065 | O=C1C2CC(C(=O)N1CCCCN1CCN(c3nsc4ccccc34)CC1)C1C2C2C3CC4C2C4C31 (stereo not shown) [Example 5, Decahydro-3-[4-[4-(1,2-benzisothiazol-3-yl)-1-piperazinyl]butyl]-1,5-methano-6,7,9-metheno-2H-pentaleno[1,2-d]azepine-2,4(3H)-dione] | ED50 ([3]; ip): 6.43 mg/kg; ED50 ([3]; po): 58.3 mg/kg; ED50 ([4]; ip, CI in parentheses): 4.8 mg/kg; ED50 ([4]; po, no CI): 35.4 mg/kg; Ki (dopamine D-2 receptor): 0.5 nM

The next lines start with the compound.

SMILES | inhibition at 1 µM (dopamine D-2 receptor) [%] | inhibition at 1 µM [2] [%] | Ki [2] [nM] | other results
O=C1CC2(CCCC2)CC(=O)N1CCCCN1CCN(c2ncccn2)CC1 [buspirone] |  |  |  | affinity for the 5-HT1A serotonin receptor subtype (in words) [1]: high affinity
O=C1C2C3C=CC(C4CC34)C2C(=O)N1CCCCN1CCN(c2nsc3ccccc23)CC1 (stereo not shown) [Example 3, 2-[4-[4-(1,2-Benzisothiazol-3-yl)-1-piperazinyl]butyl]-4,4a,5,5a,6,6a-hexahydro-4,6-ethenocycloprop[f]isoindole-1,3(2H,3aH)-dione] | 99 | 100 |  | 
O=C1C2C3C=CC(C4C=CC43)C2C(=O)N1CCCCN1CCN(c2nsc3ccccc23)CC1 (stereo not shown) [Example 4, 2-[4-[4-(1,2-Benzisothiazol-3-yl)-1-piperazinyl]butyl]3a,4,4a,6a,7,7a-hexahydro-4,7-etheno-1H-cyclobut[f]isoindole-1,3(2H)-dione] | 95 | 97 | 0.65 | 
